Measured values published in ChEMBL document CHEMBL1129143, “Synthesis and acetylcholinesterase inhibitory activity of fluorinated analogues of huperzine A” (Bioorg Med Chem Lett, 1996).

Each compound was assayed against Acetylcholinesterase (Homo sapiens, UniProt P22303) (assay: In vitro inhibitory activity against Acetylcholinesterase (AChE).).
Chain of Acetylcholinesterase (P22303 whole entry): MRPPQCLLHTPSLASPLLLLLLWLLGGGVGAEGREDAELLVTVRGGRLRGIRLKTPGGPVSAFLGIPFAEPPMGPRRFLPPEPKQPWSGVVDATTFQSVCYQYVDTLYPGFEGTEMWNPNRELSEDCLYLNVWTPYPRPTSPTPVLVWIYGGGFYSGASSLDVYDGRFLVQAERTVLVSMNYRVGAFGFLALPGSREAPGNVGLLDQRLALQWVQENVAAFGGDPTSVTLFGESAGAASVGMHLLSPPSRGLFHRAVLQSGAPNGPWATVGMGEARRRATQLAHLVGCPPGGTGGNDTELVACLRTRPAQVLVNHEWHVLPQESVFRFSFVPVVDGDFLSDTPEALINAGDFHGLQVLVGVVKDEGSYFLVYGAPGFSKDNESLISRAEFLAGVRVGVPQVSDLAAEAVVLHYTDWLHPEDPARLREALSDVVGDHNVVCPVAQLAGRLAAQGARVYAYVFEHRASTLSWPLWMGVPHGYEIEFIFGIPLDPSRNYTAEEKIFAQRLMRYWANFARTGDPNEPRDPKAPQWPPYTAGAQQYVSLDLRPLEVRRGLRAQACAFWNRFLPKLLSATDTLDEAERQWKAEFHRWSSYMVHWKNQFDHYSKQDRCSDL

SMILES | IC50 [nM]
NC12CC(C(F)(F)F)=CC(Cc3nc(O)ccc31)/C2=C\C(F)(F)F (stereo not drawn) | 3000
CC1=CC2Cc3nc(O)ccc3C(N)(C1)/C2=C/C(F)(F)F (stereo not drawn) | 2000
C/C=C1\C2C=C(C(F)(F)F)CC1(N)c1ccc(=O)[nH]c1C2 (stereo not drawn) | 400
